The source of these data is paper PMC6152192, “Novel Methylselenoesters as Antiproliferative Agents” (Molecules : A Journal of Synthetic Chemistry and Natural …, 2017).

Series [1] has as its system HT-29 (colorectal adenocarcinoma). The experiment in a line: MTT viability assay, HT-29. The class given is cell-based. To be noted: HT-29, 72 h, MTT; for CC50: read-out: LC50 (the source's name). How it is done: (§1) The novel compounds were tested against a panel of different cancer lines: PC-3 (prostate adenocarcinoma), MCF7 (mammary adenocarcinoma), HTB-54 (lung carcinoma), K-562 (chronic myelogenous leukemia) and HT-29 (colorectal adenocarcinoma). Two non-malignant cell lines, BEAS-2B (bronchial epithelial) and 184B5 (mammary epithelial) were also included to evaluate the toxicity of the novel synthesized compounds. The antiproliferative activity was measured with the [3-(4,5-dimethylthiazol-2-yl)-2,5-diphenyltetrazolium bromide] (MTT) assay after 72 h treatment. Six concentrations ranging from 0.1 to 100 μM were tested. MSA is largely known as the main CH3SeH putative precursor and was therefore included as positive control. The following parameters were calculated: GI50 (concentration which reduces the growth by 50%), TGI (concentration completely inhibiting growth) and LC50 (concentration that kills 50% of the cells).
(§2) All cells were purchased from the American Type Culture Collection (ATCC, Barcelona, Spain). HT-29 (colorectal adenocarcinoma), HTB-54 (grade III lung carcinoma), MCF7 (mammary adenocarcinoma), PC-3 (grade IV prostate adenocarcinoma) and K-562 (chronic myelogenous leukemia) were cultured in RPMI (Gibco, Madrid, Spain), 10% FBS (Gibco), 100 units/mL penicillin and 100 μg/mL streptomycin (Gibco). BEAS-2B cell line (normal epithelial lung) was cultured in DMEM (Gibco), 10% FBS, 100 units/mL penicillin and 100 μg/mL streptomycin. 184B5 (normal mammary gland) cell line was cultured in DMEM:F12 supplemented with 5% FBS, 1 × ITS (Lonza, Barcelona, Spain), 100 nM hydrocortisone (Sigma-Aldrich), 2 mM sodium pyruvate (Lonza), 20 ng/mL EGF (Sigma-Aldrich), 0.3 nM trans-retinoic acid (Sigma-Aldrich), 100 units/mL penicillin and 100 µg/mL streptomycin. Cells were cultured at 37 °C under 5% CO2.
(§3) Cell viability after treatment was assessed by the well-known 3-(4,5-dimethyl-thiazol-2-yl)-2,5-diphenyltetrazolium bromide (MTT, Sigma-Aldrich) assay. Briefly, 10,000 cells were seeded in 96-well plates, treated and incubated for 72 h. Dilutions of the compounds in cell medium were freshly prepared from a 0.01 M stock in DMSO. After treatment, 50 μL of MTT solution in PBS (2 mg/mL) were added and cells were incubated for 4 h. Medium was removed and 150 μL of DMSO was added to dissolve the formed formazan crystals. Absorbance was read at 550 nm in a microplate absorbance reader (Sunrise, Tecan, Männedorf, Switzerland).

For series [2], the system named is K-562 (chronic myelogenous leukemia). The experiment in a line: MTT viability assay, K-562. The format is cell-based. To be noted: K-562, 72 h, MTT; for CC50: read-out: LC50 (the source's name). The procedure:
as §1, §2, §3
In general terms: Tetrazolium dyes change colour on reduction, which living cells bring about.

Series [3] concerns BEAS-2B (non-malignant bronchial epithelial). As to the kind of experiment: MTT viability assay, BEAS-2B. The format is cell-based. To be noted: BEAS-2B non-malignant, 72 h, MTT; for CC50: read-out: LC50 (the source's name). How it is done:
as §1, §2, §3

Series [4] concerns 184B5 (non-malignant mammary epithelium). As to the kind of experiment: MTT viability assay, 184B5. The class given is cell-based. To be noted: 184B5 non-malignant, 72 h, MTT; for CC50: read-out: LC50 (the source's name). How it is done:
as §1, §2, §3

Series [5] has as its system HTB-54 (lung carcinoma). As to the kind of experiment: MTT viability assay, HTB-54. The format is cell-based. To be noted: HTB-54, 72 h, MTT; for CC50: read-out: LC50 (the source's name). The procedure:
as §1, §2, §3

Series [6] in a line: Methylselenol (CH3SeH) release by hydrolysis, quantified with DTNB (Ellman's reagent). The class given is physicochemical. The following applies: 100 μM compound, 100 μM DTNB, 100 mM phosphate buffer, 1 mM EDTA, pH 8, followed over 72 h. The source says:
The new compounds were designed as CH3SeH precursors. The chemical features of the selenoester functional group facilitate a nucleophilic attack (i.e., with water) which would deliver the CH3SeH residue. In order to verify if CH3SeH could be released from the molecules by hydrolysis and if the rate differed among the compounds, the reaction of CH3SeH with 5,5′-dithiobis(2-nitrobenzoic acid) (DTNB or Ellman’s reagent) in aqueous environment was monitored. Briefly, when the disulfide bridge of DTNB reacts with thiols or selenols, 2-nitro-5-thiobenzoate (TNB^2−) is released and the mixed disulfide or selenylsulfide is formed. Each released CH3SeH produces one yellow TNB^2− species, whose absorbance can be quantified at 412 nm (Figure 2A).
A stock solution of the compounds was prepared in anhydrous DMSO (10 mM). The compounds were placed in a 96-well plate in a final concentration of 100 μM. Reaction started after adding 200 μL of an aqueous 100 mM Na2HPO4 buffer (1 mM EDTA, pH = 8), containing 100 μM of DTNB from a freshly prepared 10 mM ethanolic stock, which were added just before starting the reaction. The DTNB concentration was quantified with a cysteine standard curve ([…]). Blanks for the compounds in the absence of DTNB were also included as well as a blank to measure the slow but spontaneous hydrolysis of DTNB, which was further subtracted from all the values. Absorbance was read at 412 nm in a FLUOstar Omega microplate reader (BMG LabTech, Ortenberg, Germany). Results represent means of triplicate values ± SD.
Figure 2 CH3SeH release rates are dependent on the chemical features of the molecule. Released CH3SeH was quantified through reaction with Ellman’s reagent (DTNB). (A) Proposed reaction between CH3SeH and DTNB; (B) Quantification of TNB^2− at different times. The compounds were tested at 100 μM in 200 μL of 100 mM phosphate buffer (1 mM EDTA, pH = 8). DTNB concentration was also 100 μM. Absorbance was followed at 412 nm over 72 h. A cysteine standard curve (7.5–150 μM) was used to calculate the concentration of TNB^2− over time. Compounds showing less than 15% hydrolysis at 72 h are not included, except for compound 5 as example. Error bars indicate SD of triplicates.
(DTNB colorimetry detects thiols as they appear.)

The test system of series [7] is PC-3 (prostate adenocarcinoma). The experiment in a line: MTT viability assay, PC-3. The class given is cell-based. To be noted: PC-3, 72 h, MTT; for CC50: read-out: LC50 (the source's name). The procedure:
as §1, §2, §3

The subject of series [8] is MCF7 (mammary adenocarcinoma). The experiment in a line: MTT viability assay, MCF7. The format is cell-based. To be noted: MCF7, 72 h, MTT; for CC50: read-out: LC50 (the source's name). How it is done: as §1, §2, §3

In general, GI50 refers to the concentration at which growth is held to half of that of the control. Higher therefore signals lower sensitivity of the cells. Usually TGI stands for the concentration giving total growth inhibition. Read a high TGI as less potent growth arrest. For the substance “Methyl 5-isoxazolecarboselenoate [Compound 6]”, the GI50 in series [1] is 5 ± 0.8 µM; in series [2], 18.5 ± 7.1 µM; in series [3] it was 3 ± 0.9 µM; in series [4], 2.7 ± 0.2 µM; in series [5] it was 9 ± 2.8 µM; in series [7], 4.5 ± 1.3 µM. For the same substance, the concentration for 50% growth inhibition (GI50) in series [8] stood at 3.5 ± 1 µM. In addition, the TGI in series [1] was found to be 15.1 ± 6.7 µM; in series [2] it was 58.3 ± 3.5 µM; in series [3] it was 5.6 ± 0.7 µM; in series [4], 6.0 ± 0.4 µM; in series [5], 43.9 ± 3.9 µM; in series [8] it was 8.8 ± 0.7 µM. Also, the CC50 in series [1] stood at 90.8 ± 15 µM; in series [2], 98.1 ± 0.7 µM; in series [3] it was 8.2 ± 0.5 µM; in series [4], 9.3 ± 2 µM; in series [5] it was 82 ± 1.3 µM; in series [7] it was 61.5 ± 14 µM. The CC50 in series [8] was 71.9 ± 3.2 µM. The “CH3SeH release / hydrolysis rate” value in series [6] is listed as “completely hydrolyzed within the first two hours of incubation”.
For “Methyl 3-quinolinecarboselenoate [Compound 9]”, the GI50 stood at 3.4 ± 0.2 µM in series [1]; 39.5 ± 3.1 µM in series [2]; 4.1 ± 1 µM in series [3]; 3.7 ± 0.5 µM in series [4]; 7.8 ± 1.2 µM in series [5]; 5.9 ± 0.5 µM in series [7]. Further, it took 4.4 ± 0.8 µM to inhibit growth in series [8] by half (GI50). The TGI in series [1] was determined as 7.0 ± 0.2 µM; in series [2], 72.6 ± 4.1 µM; in series [3], 7.1 ± 4.5 µM; in series [4] it was 6.2 ± 0.4 µM; in series [5] it was 33.0 ± 4.5 µM; in series [7] it was 10.0 ± 1.9 µM. This substance also displayed a TGI in series [8] of 8.1 ± 1.2 µM. The CC50 in series [1] was 37.2 ± 5 µM; in series [2], more than 100 µM; in series [3], 15.3 ± 9.1 µM; in series [4], 8.6 ± 0.4 µM; in series [5] it was 69.2 ± 2.7 µM; in series [7], 84.1 ± 8.9 µM. Also, the CC50 in series [8] came out at 48 ± 7.5 µM. In series [6], the “CH3SeH release / hydrolysis rate” value is given as “more sustained release”.
In the case of “Methyl 6-bromochromone-2-carboselenoate [Compound 11]”, the GI50 in series [1] stood at 4.9 ± 0.7 µM; in series [2] it was 81.9 ± 4 µM; in series [3] it was 2.4 ± 0.9 µM; in series [4], 3.3 ± 0.1 µM; in series [5] it was 9.4 ± 3.5 µM; in series [7], 5.3 ± 1.1 µM. Halving of growth in series [8] (GI50) required 4.2 ± 0.7 µM. The concentration for total growth inhibition (TGI) in series [1] is 9.6 ± 3 µM; in series [2] it was more than 100 µM; in series [3] it was 5.0 ± 0.8 µM; in series [4] it was 6.7 ± 0.9 µM; in series [5], 52.3 ± 2.9 µM; in series [7], 17.1 ± 5.0 µM. This substance came in with a TGI in series [8] of 8.2 ± 1.1 µM. Also, the CC50 in series [1] was 74.4 ± 4.2 µM; in series [2] it was more than 100 µM; in series [3], 7.6 ± 0.7 µM; in series [4] it was 14.5 ± 4.5 µM; in series [5], more than 100 µM; in series [7], 66.2 ± 2.4 µM. The CC50 in series [8] is more than 100 µM. In addition, the “CH3SeH release / hydrolysis rate” value in series [6] is “completely hydrolyzed within the first two hours of incubation”.
As for “Methyl 4-nitrobenzoselenoate [Compound 1]”, the GI50 in series [1] was found to be 5 ± 0.7 µM; in series [2], 50.1 ± 2.3 µM; in series [3] it was 3.8 ± 0.3 µM; in series [4], 3.4 ± 0.4 µM; in series [7], 5.8 ± 0.7 µM; in series [8] it was 4.1 ± 0.5 µM. For the same substance, the total growth inhibition concentration (TGI) is 9.3 ± 1.4 µM in series [1]; 85.3 ± 4.9 µM in series [2]; 6.4 ± 0.4 µM in series [3]; 6.4 ± 1.1 µM in series [4]; 50.5 ± 5.1 µM in series [5]; 10.4 ± 2.3 µM in series [7]. In series [8], this substance yielded a total growth inhibition concentration (TGI) of 7.9 ± 0.9 µM. The CC50 in series [1] was 87.2 ± 5 µM; in series [2], more than 100 µM; in series [3], 9 ± 0.7 µM; in series [4] it was 9.3 ± 0.6 µM; in series [5] it was 78.6 ± 2.9 µM; in series [7] it was 75.7 ± 3.3 µM. The CC50 in series [8] was found to be 45 ± 4.6 µM. For the same substance, the “CH3SeH release / hydrolysis rate” value in series [6] is on record as “more sustained release”.
